Reference: US20170190671A1, “BIS(ARYL)CATECHOL DERIVATIVES AS HERBICIDES” (E I DU PONT DE NEMOURS AND COMPANY, priority 2014, published 2017)

Assays:
Assay type in all cases: in vivo
[1] = system: velvetleaf (Abutilon theophrasti); assay: Test C postemergence; details: Abutilon theophrasti, post-emergence, Postemergence, scale 0 to 100, read-out: Plant response rating, Velvetleaf
Procedure, shortened: (§1)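 Seeds in loam-sand soil were treated preemergence, and plants at the 1- to 4-leaf stage (2-18 cm) in peat-based medium were sprayed postemergence, with test chemicals in a non-phytotoxic solvent containing surfactant. After 13-15 days in a greenhouse, response was rated visually against controls from 0 (no effect) to 100 (complete control).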

[2] = system: kochia (Kochia scoparia); assay: Test C postemergence; details: Bassia scoparia, post-emergence, Postemergence, scale 0 to 100, read-out: Plant response rating, Kochia
Procedure, shortened: as §1

[3] = system: morningglory (Ipomoea coccinea); assay: Test C postemergence; details: Ipomoea, post-emergence, 336 h, Postemergence, scale 0 to 100, read-out: Plant response rating, Morningglory
Procedure, shortened: as §1

[4] = system: giant foxtail (Setaria faberii); assay: Test C postemergence; details: Setaria faberi, post-emergence, 336 h, Postemergence, scale 0 to 100, read-out: Plant response rating, Foxtail, Giant
Procedure, shortened: as §1

[5] = system: blackgrass (Alopecurus myosuroides); assay: Test C postemergence; details: Alopecurus myosuroides, post-emergence, 336 h, Postemergence, scale 0 to 100, read-out: Plant response rating, Blackgrass
Procedure, shortened: as §1

[6] = system: galium (catchweed bedstraw, Galium aparine); assay: Test C postemergence; details: Galium, post-emergence, 336 h, Postemergence, scale 0 to 100, read-out: Plant response rating, Galium
Procedure, shortened: as §1

[7] = system: Italian ryegrass (Lolium multiflorum); assay: Test C postemergence; details: Lolium multiflorum, post-emergence, 336 h, Postemergence, scale 0 to 100, read-out: Plant response rating, Ryegrass, Italian
Procedure, shortened: as §1

[8] = system: wild oat (Avena fatua); assay: Test C postemergence; details: Avena fatua, post-emergence, Postemergence, scale 0 to 100, read-out: Plant response rating, Oat, Wild
Procedure, shortened: as §1

[9] = system: johnsongrass (Sorghum halepense); assay: Test C postemergence; details: Sorghum halepense, post-emergence, 336 h, Postemergence, scale 0 to 100, read-out: Plant response rating, Johnsongrass
Procedure, shortened: as §1

[10] = system: ragweed (common ragweed, Ambrosia elatior); assay: Test C postemergence; details: Ambrosia artemisiifolia, post-emergence, 336 h, Postemergence, scale 0 to 100, read-out: Plant response rating, Ragweed
Procedure, shortened: as §1

[11] = system: yellow nutsedge (Cyperus esculentus); assay: Test C postemergence; details: Cyperus, post-emergence, 336 h, Postemergence, scale 0 to 100, read-out: Plant response rating, Nutsedge, Yellow
Procedure, shortened: as §1

[12] = system: winter wheat (Triticum aestivum); assay: Test C postemergence; details: Triticum aestivum, post-emergence, 336 h, Postemergence, scale 0 to 100, read-out: Plant response rating, Wheat
Procedure, shortened: as §1

[13] = system: lambsquarters (Chenopodium album); assay: Test C postemergence; details: Chenopodium album, post-emergence, 336 h, Postemergence, scale 0 to 100, read-out: Plant response rating, Lambsquarters
Procedure, shortened: as §1

[14] = system: chickweed (common chickweed, Stellaria media); assay: Test C postemergence; details: Stellaria media, post-emergence, Postemergence, scale 0 to 100, read-out: Plant response rating, Chickweed
Procedure, shortened: as §1

[15] = system: large (Lg) crabgrass (Digitaria sanguinalis); assay: Test C postemergence; details: Digitaria sanguinalis, post-emergence, 336 h, Postemergence, scale 0 to 100, read-out: Plant response rating, Crabgrass, Large
Procedure, shortened: as §1

[16] = system: soybean (Glycine max); assay: Test C postemergence; details: Glycine max, post-emergence, Postemergence, scale 0 to 100, read-out: Plant response rating, Soybean
Procedure, shortened: as §1

[17] = system: oilseed rape (Brassica napus); assay: Test C postemergence; details: Brassica napus, post-emergence, Postemergence, scale 0 to 100, read-out: Plant response rating, Oilseed Rape
Procedure, shortened: as §1

[18] = system: corn (Zea mays); assay: Test C postemergence; details: Zea mays, post-emergence, 336 h, Postemergence, scale 0 to 100
Procedure, shortened: as §1

[19] = system: barnyardgrass (Echinochloa crus-galli); assay: Test C postemergence; details: Echinochloa crus-galli, post-emergence, Postemergence, scale 0 to 100, read-out: Plant response rating, Barnyardgrass
Procedure, shortened: as §1

[20] = system: blackgrass (Alopecurus myosuroides); assay: Test C preemergence; details: Alopecurus myosuroides, pre-emergence, 336 h, scale 0 to 100, read-out: Plant response rating, Blackgrass
Source text: (§2) Seeds of plant species selected from blackgrass (Alopecurus myosuroides), Italian ryegrass (Lolium multiflorum), winter wheat (Triticum aestivum), galium (catchweed bedstraw, Galium aparine), corn (Zea mays), large (Lg) crabgrass (Digitaria sanguinalis), giant foxtail (Setaria faberii), johnsongrass (Sorghum halepense), lambsquarters (Chenopodium album), morningglory (Ipomoea coccinea), yellow nutsedge (Cyperus esculentus), pigweed (Amaranthus retroflexus), ragweed (common ragweed, Ambrosia elatior), soybean (Glycine max), barnyardgrass (Echinochloa crus-galli), oilseed rape (Brassica napus), waterhemp (common waterhemp, Amaranthus rudis), and velvetleaf (Abutilon theophrasti) were planted into a blend of loam soil and sand and treated preemergence with test chemicals formulated in a non-phytotoxic solvent mixture which included a surfactant.
(§3) At the same time, plants selected from these crop and weed species and also chickweed (common chickweed, Stellaria media), kochia (Kochia scoparia), and wild oat (Avena fatua), were planted in pots containing Redi-Earth® planting medium (Scotts Company, 14111 Scottslawn Road, Marysville, Ohio 43041) comprising spaghnum peat moss, vermiculite, wetting agent and starter nutrients and treated with postemergence applications of test chemicals formulated in the same manner. Plants ranged in height from 2 to 18 cm (1- to 4-leaf stage) for postemergence treatments. Treated plants and controls were maintained in a greenhouse for 13 to 15 days, after which time all species were compared to controls and visually evaluated. Plant response ratings, summarized in Table C, are based on a scale of 0 to 100 where 0 is no effect and 100 is complete control. A dash (-) response means no test result.

[21] = system: yellow nutsedge (Cyperus esculentus); assay: Test C preemergence; details: Cyperus, pre-emergence, 336 h, scale 0 to 100, read-out: Plant response rating, Nutsedge, Yellow
Source text: as §2, §3

[22] = system: oilseed rape (Brassica napus); assay: Test C preemergence; details: Brassica napus, pre-emergence, scale 0 to 100, read-out: Plant response rating, Oilseed Rape
Source text: as §2, §3

FC(F)c1cccc(Oc2ncc(Cl)cn2)c1Oc1ncc(Cl)cn1 [Compound 46, 2,2′-[[3-(difluoromethyl)-1,2-phenylene]bis(oxy)]bis[5-chloropyrimidine]]
pest or weed control at 31 g/ha ([1]; 31 g ai/ha): 25% | pest or weed control at 62 g/ha ([1]; 62 g ai/ha): 55% | pest or weed control at 125 g/ha ([1]; 125 g ai/ha): 65% | pest or weed control at 16 g/ha ([2]; 16 g ai/ha): 70% | pest or weed control at 31 g/ha ([2]; 31 g ai/ha): 80% | pest or weed control at 62 g/ha ([2]; 62 g ai/ha): 95% | pest or weed control at 125 g/ha ([2]; 125 g ai/ha): 100% | pest or weed control at 31 g/ha ([3]; 31 g ai/ha): 80% | pest or weed control at 62 g/ha ([3]; 62 g ai/ha): 85% | pest or weed control at 125 g/ha ([3]; 125 g ai/ha): 90% | pest or weed control at 16 g/ha ([4]; 16 g ai/ha): 35% | pest or weed control at 31 g/ha ([4]; 31 g ai/ha): 20% | pest or weed control at 62 g/ha ([4]; 62 g ai/ha): 50% | pest or weed control at 125 g/ha ([4]; 125 g ai/ha): 25% | pest or weed control at 16 g/ha ([5]; 16 g ai/ha): 0% | pest or weed control at 31 g/ha ([5]; 31 g ai/ha): 0% | pest or weed control at 62 g/ha ([5]; 62 g ai/ha): 0% | pest or weed control at 125 g/ha ([5]; 125 g ai/ha): 5% | pest or weed control at 16 g/ha ([6]; 16 g ai/ha): 60% | pest or weed control at 31 g/ha ([6]; 31 g ai/ha): 60% | pest or weed control at 62 g/ha ([6]; 62 g ai/ha): 60% | pest or weed control at 125 g/ha ([6]; 125 g ai/ha): 65% | pest or weed control at 31 g/ha ([7]; 31 g ai/ha): 5% | pest or weed control at 62 g/ha ([7]; 62 g ai/ha): 5% | pest or weed control at 125 g/ha ([7]; 125 g ai/ha): 10% | pest or weed control at 31 g/ha ([8]; 31 g ai/ha): 5% | pest or weed control at 62 g/ha ([8]; 62 g ai/ha): 5% | pest or weed control at 125 g/ha ([8]; 125 g ai/ha): 10% | pest or weed control at 16 g/ha ([9]; 16 g ai/ha): 5% | pest or weed control at 31 g/ha ([9]; 31 g ai/ha): 10% | pest or weed control at 62 g/ha ([9]; 62 g ai/ha): 5% | pest or weed control at 125 g/ha ([9]; 125 g ai/ha): 5% | pest or weed control at 31 g/ha ([10]; 31 g ai/ha): 50% | pest or weed control at 62 g/ha ([10]; 62 g ai/ha): 65% | pest or weed control at 125 g/ha ([10]; 125 g ai/ha): 95% | pest or weed control at 31 g/ha ([11]; 31 g ai/ha): 0% | pest or weed control at 62 g/ha ([11]; 62 g ai/ha): 5% | pest or weed control at 125 g/ha ([11]; 125 g ai/ha): 5% | plant injury at 31 g/ha ([12]; 31 g ai/ha): 5% | plant injury at 62 g/ha ([12]; 62 g ai/ha): 5% | plant injury at 125 g/ha ([12]; 125 g ai/ha): 10% | pest or weed control at 16 g/ha ([13]; 16 g ai/ha): 55% | pest or weed control at 31 g/ha ([13]; 31 g ai/ha): 70% | pest or weed control at 62 g/ha ([13]; 62 g ai/ha): 85% | pest or weed control at 125 g/ha ([13]; 125 g ai/ha): 98% | pest or weed control at 16 g/ha ([14]; 16 g ai/ha): 35% | pest or weed control at 31 g/ha ([14]; 31 g ai/ha): 40% | pest or weed control at 62 g/ha ([14]; 62 g ai/ha): 60% | pest or weed control at 125 g/ha ([14]; 125 g ai/ha): 75% | pest or weed control at 16 g/ha ([15]; 16 g ai/ha): 5% | pest or weed control at 31 g/ha ([15]; 31 g ai/ha): 5% | pest or weed control at 62 g/ha ([15]; 62 g ai/ha): 10% | pest or weed control at 125 g/ha ([15]; 125 g ai/ha): 10% | plant injury at 31 g/ha ([16]; 31 g ai/ha): 65% | plant injury at 62 g/ha ([16]; 62 g ai/ha): 75% | plant injury at 125 g/ha ([16]; 125 g ai/ha): 80% | plant injury at 31 g/ha ([17]; 31 g ai/ha): 30% | plant injury at 62 g/ha ([17]; 62 g ai/ha): 50% | plant injury at 125 g/ha ([17]; 125 g ai/ha): 65% | Corn plant response rating (crop injury, 0 = no effect, 100 = complete kill) at 16 g/ha ([18]; 16 g ai/ha): 5% | Corn plant response rating (crop injury, 0 = no effect, 100 = complete kill) at 31 g/ha ([18]; 31 g ai/ha): 5% | Corn plant response rating (crop injury, 0 = no effect, 100 = complete kill) at 62 g/ha ([18]; 62 g ai/ha): 5% | Corn plant response rating (crop injury, 0 = no effect, 100 = complete kill) at 125 g/ha ([18]; 125 g ai/ha): 10% | pest or weed control at 16 g/ha ([19]; 16 g ai/ha): 0% | pest or weed control at 31 g/ha ([19]; 31 g ai/ha): 5% | pest or weed control at 62 g/ha ([19]; 62 g ai/ha): 5% | pest or weed control at 125 g/ha ([19]; 125 g ai/ha): 5% | pest or weed control at 31 g/ha ([20]; 31 g ai/ha, preemergence): 70% | pest or weed control at 62 g/ha ([20]; 62 g ai/ha, preemergence): 95% | pest or weed control at 125 g/ha ([20]; 125 g ai/ha, preemergence): 95% | pest or weed control at 16 g/ha ([20]; Preemergence, 16 g ai/ha): 0% | pest or weed control at 31 g/ha ([21]; 31 g ai/ha, preemergence): 35% | pest or weed control at 62 g/ha ([21]; 62 g ai/ha, preemergence): 55% | pest or weed control at 125 g/ha ([21]; 125 g ai/ha, preemergence): 80% | pest or weed control at 16 g/ha ([21]; Preemergence, 16 g ai/ha): 0% | plant injury at 31 g/ha ([22]; 31 g ai/ha, preemergence): 90% | plant injury at 62 g/ha ([22]; 62 g ai/ha, preemergence): 98% | plant injury at 125 g/ha ([22]; 125 g ai/ha, preemergence): 100% | plant injury at 16 g/ha ([22]; Preemergence, 16 g ai/ha): 65%
